Patent publication US9752115B2, “Culture conditions for expansion of nephron progenitor cells” (Maine Medical Center Research Institute, priority 2014, dated 2017)
pIC50: −log10 of the molar value.

How the values were obtained:
CITED1+ progenitors [1] = details: serum free medium; BIO 2 μM, CHIR99021 3 μM; cited from earlier work
CITED1+ progenitors [2] = test: Aggregate culture tubulogenesis of purified CITED1+ progenitors; format: cell-based, mouse
Protocol: Cell culture. CITED1+ progenitors were purified from NZCs derived from E17.5 kidneys as previously described (Brown et al., 2011b; Brown et al., 2013). CITED1+ progenitors were cultured in monolayer on hESC qualified MatrigelTM coated plates (Corning). For human or mouse passage, cells were dissociated by incubation with TrypLE (Life Technologies) for 2 minutes at 37 C, washed and spun 2× at 300 g in autoMACs running buffer (Miltenyi) prior to resuspension in NPEM as described in Table 1. NPEM is changed every 2 days. Cells were differentiated in aggregate culture with CHIR (3 μM) in medium as previously described (Brown et al., 2013). To understand if these observations could be extrapolated to CITED1+ cells in culture, a series of experiments was performed upon nephron progenitor cells isolated from embryonic mouse kidneys. Using a previously developed isolation protocol, CITED1+ progenitors were harvested from embryonic mouse kidneys between the ages of E16.5 to P1 at near 100% purity, allowing interrogation of the CITED1+ population at multiple time points (FIGS. 7A and 7B) (Brown et al., 2013). However, CITED1 progenitor purity dropped to 75% by P2, likely due to the loss of CITED1+ progenitors that occurred during cessation (FIG. 7B and FIG. 6B).

[3] = system: hESC-derived nephron progenitors; test: Subtraction of individual components from NPEM, hESC-derived progenitors; format: cell-based, human; details: passage 3 progenitors, 3 days monolayer
Protocol: FIGS. 19A and 19B show nephron progenitor marker expression in human ES cell derived cultures grown in the absence of individual factors. In FIG. 19A, passage 3 progenitors were grown in NPEM in the absence of individual factors for 3 days in monolayer culture and immunostained for CITED1, SIX2, PAX2 and WT1. Antibody staining is shown in red and nuclear counterstaining with DAPI is shown in blue. In FIG. 19B, passage 3 progenitors were grown in NPEM in the absence of the indicated factors for 3 days in monolayer culture and immunostained for PAX2.
To understand if cellular growth in NPEM could be directly extrapolated to human cells, the above analysis was repeated with nephron progenitor cells derived from hESCs using the Takasato protocol (Takasato et al., 2014). CITED1+/SIX2+/PAX2+/WT1+ cells generated using this procedure lost expression of nephron progenitor markers following a single passage (FIG. 12A and FIG. 18A). […] When LDN was eliminated from the medium during the passage 2 culture, cells lost expression of PAX2 (FIG. 12C).

[4] = system: E17.5 CITED1+ progenitors; test: Subtraction of individual factors from NPEM, mouse progenitors; format: cell-based; details: for competence for tubulogenesis after subtraction of the factor: 7 days in aggregate culture after monolayer; for progenitor growth and state in the absence of the factor: factor subtracted from NPEM, 3 days monolayer
Protocol: Flow cytometry. CITED1+ progenitors were purified from GFP+ kidneys isolated from Cited1creERT2-EGFP×ICR mice and cultured as described in the text. GFP fluorescence intensity and cell counts were collected on a FACSCalibur (BD) and data were analyzed using FlowJo software.
Using flow cytometry on E17.5 CITED1+ progenitors derived from Cited1creERT2-EGFP mice, the requirement for each of the culture additives to maintain cells in the undifferentiated state was evaluated by subtracting them from the medium (FIGS. 10A and 10B).
In the absence of LDN, nuclear localization of pSMAD1/5 increased dramatically, as did transcription of the SMAD response gene Cv2 (FIGS. 10C and 10D). […] In addition to losing CITED1 expression, progenitors cultured in the absence of LDN lost expression of characteristic marker genes including […], PAX2, WT1 and […], which may have helped to explain their lack of competence (FIG. 10F and FIG. 14). CITED1+ progenitors isolated from E13.5 kidneys also required LDN to expand while maintaining their competence to differentiate (FIG. 15).

ALK7 = biological target: T1, ALK7 (Homo sapiens, UniProt Q8NER5); details: ALK7, not inhibited; cited from earlier work
T1 sequence (Q8NER5 21-493): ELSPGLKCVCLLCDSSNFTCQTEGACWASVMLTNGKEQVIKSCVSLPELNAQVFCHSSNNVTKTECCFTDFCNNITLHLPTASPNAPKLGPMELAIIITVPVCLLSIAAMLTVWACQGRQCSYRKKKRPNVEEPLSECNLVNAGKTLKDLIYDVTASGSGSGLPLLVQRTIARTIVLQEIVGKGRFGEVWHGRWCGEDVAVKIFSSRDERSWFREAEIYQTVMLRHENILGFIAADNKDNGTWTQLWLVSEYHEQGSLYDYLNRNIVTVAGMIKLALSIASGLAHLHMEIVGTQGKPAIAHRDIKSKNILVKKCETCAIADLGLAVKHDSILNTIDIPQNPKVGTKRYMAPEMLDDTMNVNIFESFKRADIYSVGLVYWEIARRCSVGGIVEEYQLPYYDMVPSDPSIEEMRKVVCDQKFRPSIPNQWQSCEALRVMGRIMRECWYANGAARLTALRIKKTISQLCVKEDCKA

SMAD1/5 phosphorylation = test: pSMAD1/5 immunoblot of nephrogenic zone cells from LDN-treated newborn pups; format: in vivo, mouse; details: immunoblot of isolated NZCs; 3 mg/kg intraperitoneal twice daily P0 until P2
Source text: (§1) Fluorescent imaging of GFP expression in cap mesenchymes “C” shown. […] Cap mesenchymes are outlined with dotted red lines. […] Percent remaining after LDN treatment quantified in graph. NZCs were isolated from 4 kidney pairs per treatment group and pooled. […] Representative image from 4 kidney pairs per group shown. […] Data represent the mean±SD of qPCR technical replicates from 5 (DMSO) and 6 (LDN) pooled kidney pairs.
(§2) Mouse strains and treatments. Animal care was in accordance with the National Research Council Guide for the Care and Use of Laboratory Animals and protocols were approved by the Institutional Animal Care and Use Committee of Maine Medical Center. CITED1 progenitors were derived from kidneys of Cited1creERT2-EGFP×ICR (Institute for Cancer Research mice) heterozygous mice. Cited1creERT2-EGFP and Six2cre-EGFP mouse strains are maintained on an FVB/NJ background (Boyle et al., 2008a; Kobayashi et al., 2008).
(§3) LDN was selected over other similar analogs because it is highly specific for SMAD1/5 and has been successfully used in vivo (Yu et al., 2008). […] To measure the differentiation status of nephron progenitor cells, Cited1creERT2-EGFP and Six2cre-EGFP mouse strains were used, which dynamically expressed fluorescent protein under the control of Cited1 and Six2 (Boyle et al., 2008a; Kobayashi et al., 2008). […]

cap mesenchyme = test: Cited1/Six2 EGFP reporter expression in cap mesenchyme of treated pups; format: in vivo, mouse; details: EGFP reporter mice, P2 and P3; untreated animals lost expression
Source text: as §1, §2, §3

Row | SMILES | tubulogenesis in aggregate culture with WNT/β-catenin agonist (CITED1+ progenitors [1]) | tubulogenesis of P0 Cited1creERT2-EGFP progenitors (CITED1+ progenitors [2]; CHIR 3 μM, by day 4, GFP expression lost) | expression of CITED1, PAX2, SIX2 and WT1 after subtraction of the component [3] | competence for tubulogenesis after subtraction of the factor [4] | progenitor growth and state in the absence of the factor [4] | Cited1-driven GFP expression (CITED1+ progenitors [2]; LDN 75 nM added to CHIR 3 μM) | effect on CHIR-induced tubulogenesis (CITED1+ progenitors [2]; LDN 75 nM added to CHIR 3 μM) | pIC50 (ALK7) | reduction in SMAD1/5 phosphorylation compared to vehicle-treated controls (SMAD1/5 phosphorylation) | expression of Cited1 and Six2 in cap mesenchyme (cap mesenchyme)
1 | O=C1Nc2cc(Br)ccc2/C1=C1/Nc2ccccc2/C1=N\O [BIO] | robust tubulogenesis | – | – | – | – | – | – | – | – | –
2 | Cc1c[nH]c(-c2cnc(NCCNc3ccc(C#N)cn3)nc2-c2ccc(Cl)cc2Cl)n1 [CHIR99021] | robust tubulogenesis | underwent tubulogenesis | critical dependence | still competent to undergo tubulogenesis | failed to expand but remained CITED1+ | – | – | – | – | –
3 | c1ccc2c(-c3cnn4cc(-c5ccc(N6CCNCC6)cc5)cnc34)ccnc2c1 [LDN-193189] | – | – | critical dependence | unable to undergo differentiation | expanded but were largely CITED1 negative | maintained GFP expression | blocked tubulogenesis | < 6.30 | greater than 95% | expression was maintained
4 | C[C@@H](N)[C@H]1CC[C@H](C(=O)Nc2ccncc2)CC1 [Y-27632] | – | – | critical dependence | still competent to undergo tubulogenesis | significant decrease in cell attachment | – | – | – | – | –
